# Results: the OPERA property sets (Mansouri et al. 2018)
# Settings: for log10 biotransformation half-life (days) / log10 BCF: fish
SMILES,melting point,boiling point,other results
COc1c(N)cccc1[N+](=O)[O-],,,ready biodegradability: not readily biodegradable
O=[N+]([O-])c1cc(Br)ccc1O,92 °C,,
C=CC(F)(Cl)C(F)(F)Br (stereo unspecified),,99.5 °C,
O=C(O)C(F)(F)C(F)(F)C(F)(F)C(F)(F)C(F)(F)C(F)(F)C(F)(F)C(F)(F)C(F)(F)C(F)(F)C(F)(F)C(F)(F)C(F)(F)F,,,ready biodegradability: not readily biodegradable
O=C1c2cccc(O)c2C(=O)c2c(O)cc(CO)cc21,224 °C,,
C=CC(CC)c1ccccc1 (stereo unspecified),,192 °C,
CF,-142 °C,-78.4 °C,log10 vapour pressure (mmHg): 3.46
COc1ccc(COC(C)=O)cc1,84 °C,270 °C,
CC1CCNCC1,,130 °C,
CC(=O)OC(C)C,-73.4 °C,88.6 °C,log10 Henry constant (atm·m³/mol): -3.56; log10 Koa: 2.93; log10 vapour pressure (mmHg): 1.78; ready biodegradability: readily biodegradable
CC[C@]1(O)CC[C@H]2[C@@H]3CCC4=CC(=O)CC[C@@H]4[C@H]3CC[C@@]21C,140 °C,,
CCCN(CCOc1c(Cl)cc(Cl)cc1Cl)C(=O)n1ccnc1,48 °C,,log10 Koc (L/kg): 2.7; log10 vapour pressure (mmHg): -5.95
CC(C)CCC(C)O (stereo unspecified),,151 °C,log10 vapour pressure (mmHg): 0.307
O=C(CF)c1ccccc1,29 °C,,
Clc1ccc(Oc2cc(Cl)c(Cl)cc2Cl)cc1,,,log10 biotransformation half-life (days): 1.93
CC(C)(C)OOC(C)(C)c1ccc(C(C)(C)OOC(C)(C)C)cc1,,,ready biodegradability: not readily biodegradable
CCN(CC)C(=O)C(C)Oc1cccc2ccccc12 (stereo unspecified),75 °C,,log10 Koc (L/kg): 2.76; log10 vapour pressure (mmHg): -6.76
CC(C)(C)C1CCC(=O)CC1,48.5 °C,,
CCOC(=O)C1(C(=O)OCC)CCC1,,224 °C,
OCc1ccc(Cl)c(Cl)c1,36 °C,150 °C,log10 BCF: 0.54
CC(=O)[C@H]1CC[C@H]2[C@@H]3C=CC4=CC(=O)CC[C@@]4(C)[C@@H]3CC[C@]12C,170 °C,,
O=C(O)c1cc(-c2ccccc2)nc2ccccc12,214 °C,,
C[Si](O)(c1ccccc1)c1ccccc1,167 °C,,
CC1NC(C)SC(C)S1 (stereo unspecified),46 °C,,
CC(=O)OC(C)(C)C,,97 °C,log10 vapour pressure (mmHg): 1.67
CCCCC(C)CC (stereo unspecified),-100 °C,118 °C,log10 biodegradation half-life (days): 0.477; log10 vapour pressure (mmHg): 1.29

SMILES,melting point,boiling point,other results
CNC(=O)/C=C(\C)OP(=O)(OC)OC,55 °C,,log10 Koc (L/kg): 0; log10 vapour pressure (mmHg): -5.66
Clc1cc2cc(Cl)c(Cl)cc2cc1Cl,,,log10 Koa: 8.45
Oc1ccc(Cl)c(O)c1,107 °C,,ready biodegradability: not readily biodegradable
Cc1cc(Cl)c(C)cc1Cl,71 °C,222 °C,
NC(=O)c1ccc(O)cc1,162 °C,,
O=C(Oc1ccc2ccccc2c1)c1ccccc1O,95.5 °C,,
Cc1c2ccncc2c(C)c2c1[nH]c1ccccc12,313 °C,,
Cc1cc(Cl)[nH]n1,118 °C,258 °C,
CC(C)SC(C)C,-78.1 °C,120 °C,log10 Henry constant (atm·m³/mol): -2.48; log10 vapour pressure (mmHg): 1.28
N#Cc1ccc(C=O)cc1,100 °C,,
NS(=O)(=O)c1ccc(N2C(=O)CC(c3ccccc3)C2=O)c(Cl)c1 (stereo unspecified),206 °C,,
CCCCOCCOC(=O)C(C)Oc1ccc(Cl)cc1Cl (stereo unspecified),,,log10 Koc (L/kg): 3
CC1=CCC(C(C)(C)O)C[C@@H]1O (stereo partly specified),130 °C,270 °C,
NNc1ccccn1,46.6 °C,,
CSc1ccc(N)cc1,,272 °C,
Oc1c(Br)cc(Br)c2cccnc12,196 °C,,
Clc1cc(Cl)c(-c2c(Cl)c(Cl)cc(Cl)c2Cl)c(Cl)c1Cl,,,log10 Henry constant (atm·m³/mol): -4.77; log10 biotransformation half-life (days): 2.46
CNC[C@H](O)c1ccc(O)c(O)c1.O=C(O)[C@H](O)[C@@H](O)C(=O)O,150 °C,,
C=CI,,56 °C,
CCCCCCCCCCCCCCCCCC(=O)OCC(O)[C@H]1OC[C@@H](O)[C@@H]1O (stereo partly specified),,,ready biodegradability: readily biodegradable
C=CC[N+](=O)[O-],,128 °C,
Cc1nccnc1C,,156 °C,
O=[N+]([O-])c1cccc2cccc([N+](=O)[O-])c12,173 °C,,
CC(c1c(O)c2ccccc2oc1=O)c1c(O)c2ccccc2oc1=O,178 °C,,
CCCCCC[C@H](C)S,,,log10 vapour pressure (mmHg): -0.147
Cc1ccc(C)c(C)n1,,172 °C,

SMILES,melting point,boiling point,other results
CN1C2CCCC1CC(=O)C2,54 °C,246 °C,
OCC(O)CI (stereo unspecified),48.5 °C,,
CN[C@@H](C)Cc1ccccc1.Cl,172 °C,,
C[C@H]1C[C@@H](OC(=O)c2ccccc2)CC(C)(C)N1,70.5 °C,,
CCOCCN(Cc1ccc(CN(CCOCC)C(=O)C(Cl)Cl)cc1)C(=O)C(Cl)Cl,140 °C,,
COC=Cc1ccccc1,,212 °C,
CC/C=C(\C)C(=O)O,24.4 °C,214 °C,
CCCCOC(=O)COc1cc(Cl)c(Cl)cc1Cl,28.5 °C,,log10 vapour pressure (mmHg): -4.82
NC(=O)c1cc([N+](=O)[O-])cc([N+](=O)[O-])c1,184 °C,,log10 Koc (L/kg): 2.31
Cc1cc(C)cc(OCC2CNC(=O)O2)c1 (stereo unspecified),122 °C,,
CNN,-52.4 °C,87.5 °C,log10 vapour pressure (mmHg): 1.7; ready biodegradability: not readily biodegradable
C=CCCC=O,,99 °C,
SCCCCCCCCS,,270 °C,
O=S(=O)(O)C(F)(F)C(F)(F)C(F)(F)C(F)(F)F,,211 °C,
CCSc1ccc2c(c1)N(CCCN1CCN(C)CC1)c1ccccc1S2,63 °C,,
NS(=O)(=O)c1ccc(SCCCO)c([N+](=O)[O-])c1,163 °C,,
CCC(Oc1ccc(C(C)(C)CC)cc1C(C)(C)CC)C(=O)Nc1ccc(NC(=O)C(F)(F)C(F)(F)C(F)(F)F)c(O)c1 (stereo unspecified),,,ready biodegradability: not readily biodegradable
CCCCCCCCCCCCCCCCCN,49 °C,336 °C,
C[C@H]1[C@H](C)CC[C@]2(C(=O)O)CC[C@]3(C)C(=CC[C@@H]4[C@@]5(C)CC[C@H](O)C(C)(C)[C@@H]5CC[C@]43C)[C@H]12,284 °C,,
O=C(O)Cc1ccccc1Oc1ccc(Cl)cc1Cl,112 °C,,
CCOC(=O)CC(=O)c1ccccc1,,,log10 vapour pressure (mmHg): -3.39
Cc1cc(Cl)nc(Cl)n1,46.5 °C,219 °C,
CC(Oc1ccc(Oc2cnc3cc(Cl)ccc3n2)cc1)C(=O)OCC1CCCO1 (stereo unspecified),64 °C,,
CC(C)(C)c1ccc(C(C)(C)C)o1,,210 °C,
Cc1c(-c2ccccc2)[nH]c2ccccc12,91.5 °C,,
O=C(O)C1CCCCN1 (stereo unspecified),264 °C,,

SMILES,melting point,boiling point,other results
Cc1ccc2c(-c3ccccc3)nc(=O)n(C(C)C)c2c1,138 °C,,
CCCCC(C)c1ccccc1 (stereo unspecified),,208 °C,
CC(C)N(C)C,,66 °C,
CCc1cc(C)cc(C)c1,-84.3 °C,184 °C,log10 biodegradation half-life (days): 0.301; log10 vapour pressure (mmHg): 0.0133
CCC(CC)COC(=O)CCCCC(=O)OCC(CC)CC,-15 °C,,
CC(=O)NC(CCC(N)=O)C(=O)O (stereo unspecified),197 °C,,
CCCC(C)C(C)(C)C (stereo unspecified),,134 °C,log10 vapour pressure (mmHg): 1.06
Nc1ccc(Cl)cc1C(=O)O,,,ready biodegradability: not readily biodegradable
CNC(=O)Nc1ccc(Cl)c(Cl)c1,,,log10 Koc (L/kg): 2.46
O=[N+]([O-])c1cccc(SSc2cccc([N+](=O)[O-])c2)c1,84 °C,,
Fc1ccccc1Cl,-43 °C,138 °C,
CCNCC(O)c1cccc(O)c1 (stereo unspecified),148 °C,,
Cc1cccc2cc[nH]c12,85 °C,266 °C,
CCN(CC)C(=O)Cl,-32 °C,186 °C,
Clc1cccc(-c2c(Cl)cc(Cl)c(Cl)c2Cl)c1Cl,,,log10 Henry constant (atm·m³/mol): -4.41
OCCN(CCO)CCO,20.5 °C,335 °C,log10 vapour pressure (mmHg): -5.44; ready biodegradability: not readily biodegradable; log10 BCF: 0.59
O=C(O)Cc1ccc([N+](=O)[O-])cc1,154 °C,,
Nc1ccc([N+](=O)[O-])cc1Cl,108 °C,,log10 Henry constant (atm·m³/mol): -8.02; ready biodegradability: not readily biodegradable
O=C(O)COCC(=O)O,148 °C,,
CCO[Si](CCC#N)(OCC)OCC,,224 °C,
COC(=O)C(C)N(C(=O)Cc1ccccc1)c1c(C)cccc1C (stereo unspecified),79 °C,,log10 Koc (L/kg): 3.54; log10 vapour pressure (mmHg): -5
C=C(C)C(=O)C(=CC(=O)O)OC,83 °C,,
C/C=C/C=C/CCCCCCCO,32 °C,,log10 vapour pressure (mmHg): -3.29
C#CCC(C)C,-105 °C,61.2 °C,
CC(=O)NC(C)=O,79 °C,224 °C,log10 vapour pressure (mmHg): -2
COc1cc(C(Cl)(Cl)Cl)cc(Cl)n1,,,log10 Koc (L/kg): 3.48

SMILES,melting point,boiling point,other results
Clc1ccc(Cl)c(-c2cc(Cl)c(Cl)cc2Cl)c1,,,log10 Henry constant (atm·m³/mol): -4.05; log10 Koa: 9.06; log10 Koc (L/kg): 5.22; log10 vapour pressure (mmHg): -4.6; log10 BCF: 5.47; log10 biotransformation half-life (days): 2.46
Cc1ccc(Cl)c(OCC(O)CNC(C)(C)C)c1 (stereo unspecified),221 °C,,
CC(Cl)(Cl)C(=O)O,-5 °C,188 °C,log10 Koc (L/kg): 0.4; log10 vapour pressure (mmHg): -0.821
Cc1cc(Cl)ccc1N=CN(C)C,35 °C,,log10 Koc (L/kg): 2.91; log10 vapour pressure (mmHg): -3.03
CNC[C@H](O)c1cccc(O)c1.Cl,142 °C,,
CCCCC(C#N)(Cn1cncn1)c1ccc(Cl)cc1 (stereo unspecified),,,log10 Koc (L/kg): 2.7
COc1cc(Cl)c(Cl)cc1O,,,log10 vapour pressure (mmHg): -2.35; log10 BCF: 2.03; log10 biotransformation half-life (days): -0.15
CCOC(C)CO (stereo unspecified),,140 °C,
C=CCc1ccc(OC)cc1,,216 °C,
CCCCCCCCCCCCCCCCBr,18 °C,336 °C,log10 vapour pressure (mmHg): -4.31; ready biodegradability: readily biodegradable
CCCCOc1ccc(C(=O)O)cc1,148 °C,,
Nc1cc(Cl)c(O)c(Cl)c1,168 °C,,
CCN(CC)C(=O)SCc1ccc(Cl)cc1,3.3 °C,,log10 Koc (L/kg): 3.27; log10 vapour pressure (mmHg): -4.66; log10 BCF: 2.23; log10 biotransformation half-life (days): 0.66
CCOC(=O)COc1cc(Cl)c(Cl)cc1Cl,64 °C,,
O=C(Cl)c1ccc(Cl)cc1Cl,16.5 °C,,
CNC(=O)N(C)c1nc2ccccc2s1,120 °C,,log10 Koc (L/kg): 2.8; log10 vapour pressure (mmHg): -6.95
Cc1cc(C(C)(C)C)cc(C(C)(C)C)c1O,51 °C,269 °C,
Cc1ccc(O)c(C(=O)O)c1,151 °C,,
CSc1c(N)nc(N)nc1Cl,,,log10 Koc (L/kg): 2.08
NC(=O)OCCCl,75.5 °C,,
CC(=O)OCCl,,116 °C,
C1OC1C1CO1 (stereo unspecified),,,log10 Koc (L/kg): 0.4; log10 vapour pressure (mmHg): 1.59
